Test results from US20260198493A1, “HYDRAZIDE COMPOUND AND AGRICULTURAL/HORTICULTURAL FUNGICIDE” (Nippon Soda Co., Ltd., priority 2022, published 2026).

How the values were obtained:
Botrytis cinerea [1] = assay type: cell-based; settings: 120 h, 25 ppm by volume, Vogel medium, 20° C., five days, dark, read-out: growth inhibition ratio
Fusarium graminearum = experiment: microbe, parasite or virus in culture; assay type: cell-based; settings: 96 h, read-out: growth inhibition ratio
Glomerella cingulata = experiment: Fungicidal effect test against fungi causing grape ripe rot disease; settings: Colletotrichum gloeosporioides, 72 h, read-out: growth inhibition ratio
Colletotrichum acutatum = experiment: Fungicidal effect test against fungi causing apple anthracnose; settings: 96 h, read-out: growth inhibition ratio
Botrytis cinerea [2] = experiment: Control test of cucumber gray mold (sprayed young cucumber seedlings); assay type: in vivo; settings: 96 h, four days after inoculation; for pest or weed control at 25 ppm: 25 ppm by mass spray; for pest or weed control at 125 ppm: 125 ppm by mass spray
Protocol: Then, the drug liquid was sprayed onto young cucumber seedlings cultivated in a nursery pot (variety “Jihai”-based, cotyledon stage), and then air-dried. […] They were left still in a moist room at 20° C. Four days after inoculation, leaves of the young cucumber seedlings were visually observed, and the control value was calculated from the lesion area ratio in accordance with the following equation. [formula]

Venturia inaequalis = experiment: Control test of apple scab disease (sprayed young apple seedlings); assay type: in vivo; settings: 125 ppm by mass spray, 12 to 14 days after inoculation
[3] = tested on: Erysiphe graminis f.sp.tritici; experiment: Control test of wheat powdery mildew disease (sprayed young wheat seedlings); assay type: in vivo; settings: Blumeria graminis, 144 h, 125 ppm by mass spray, six days after inoculation

COC(=O)N(Cc1ccc2c(c1)CCC2)NC(=O)c1cc(C)ncc1Oc1cccc(C2CC2)c1F [b-127]
≥ 75%: inhibition of growth at 25 ppm (Botrytis cinerea [1]) | inhibition of growth at 25 ppm (Fusarium graminearum) | inhibition of growth at 25 ppm (Glomerella cingulata) | inhibition of growth at 25 ppm (Colletotrichum acutatum) | pest or weed control at 25 ppm (Botrytis cinerea [2]) | pest or weed control at 125 ppm (Botrytis cinerea [2]) | pest or weed control at 125 ppm (Venturia inaequalis) | pest or weed control at 125 ppm [3]

COC(=O)N(Cc1ccc(C)cc1C)NC(=O)c1ccncc1Oc1cccc(Br)c1 [b-145]
≥ 75%: inhibition of growth at 25 ppm (Botrytis cinerea [1]) | inhibition of growth at 25 ppm (Fusarium graminearum) | inhibition of growth at 25 ppm (Glomerella cingulata) | inhibition of growth at 25 ppm (Colletotrichum acutatum) | pest or weed control at 25 ppm (Botrytis cinerea [2]) | pest or weed control at 125 ppm (Botrytis cinerea [2]) | pest or weed control at 125 ppm (Venturia inaequalis) | pest or weed control at 125 ppm [3]

COC(=O)N(Cc1ccc(OC)cc1C)NC(=O)c1ccncc1Oc1cccc(Br)c1 [b-146]
≥ 75%: inhibition of growth at 25 ppm (Botrytis cinerea [1]) | inhibition of growth at 25 ppm (Fusarium graminearum) | inhibition of growth at 25 ppm (Glomerella cingulata) | inhibition of growth at 25 ppm (Colletotrichum acutatum) | pest or weed control at 125 ppm (Botrytis cinerea [2]) | pest or weed control at 125 ppm (Venturia inaequalis) | pest or weed control at 125 ppm [3]

COC(=O)N(Cc1ccc(C)cc1C)NC(=O)c1ccncc1Oc1cccc(Br)c1F [b-147]
≥ 75%: inhibition of growth at 25 ppm (Botrytis cinerea [1]) | inhibition of growth at 25 ppm (Fusarium graminearum) | inhibition of growth at 25 ppm (Glomerella cingulata) | inhibition of growth at 25 ppm (Colletotrichum acutatum) | pest or weed control at 25 ppm (Botrytis cinerea [2]) | pest or weed control at 125 ppm (Botrytis cinerea [2]) | pest or weed control at 125 ppm (Venturia inaequalis) | pest or weed control at 125 ppm [3]

COC(=O)N(Cc1ccc(OC)cc1C)NC(=O)c1ccncc1Oc1cccc(Br)c1F [b-148]
≥ 75%: inhibition of growth at 25 ppm (Botrytis cinerea [1]) | inhibition of growth at 25 ppm (Fusarium graminearum) | inhibition of growth at 25 ppm (Glomerella cingulata) | inhibition of growth at 25 ppm (Colletotrichum acutatum) | pest or weed control at 25 ppm (Botrytis cinerea [2]) | pest or weed control at 125 ppm (Botrytis cinerea [2]) | pest or weed control at 125 ppm (Venturia inaequalis) | pest or weed control at 125 ppm [3]

COC(=O)N(Cc1ccc(C)cc1C)NC(=O)c1c(C)cncc1Oc1cccc(C2CC2)c1 [b-149]
≥ 75%: inhibition of growth at 25 ppm (Botrytis cinerea [1]) | inhibition of growth at 25 ppm (Fusarium graminearum) | inhibition of growth at 25 ppm (Glomerella cingulata) | inhibition of growth at 25 ppm (Colletotrichum acutatum) | pest or weed control at 25 ppm (Botrytis cinerea [2]) | pest or weed control at 125 ppm (Botrytis cinerea [2]) | pest or weed control at 125 ppm (Venturia inaequalis) | pest or weed control at 125 ppm [3]

COC(=O)N(Cc1ccc(C)cc1C)NC(=O)c1ccncc1Oc1cccc(C2CC2)c1F [b-150]
≥ 75%: inhibition of growth at 25 ppm (Botrytis cinerea [1]) | inhibition of growth at 25 ppm (Fusarium graminearum) | inhibition of growth at 25 ppm (Glomerella cingulata) | inhibition of growth at 25 ppm (Colletotrichum acutatum) | pest or weed control at 25 ppm (Botrytis cinerea [2]) | pest or weed control at 125 ppm (Botrytis cinerea [2]) | pest or weed control at 125 ppm (Venturia inaequalis) | pest or weed control at 125 ppm [3]

COC(=O)N(Cc1ccc(C)cc1C)NC(=O)c1cc(C)nnc1Oc1cccc(F)c1F [b-152]
≥ 75%: inhibition of growth at 25 ppm (Botrytis cinerea [1]) | inhibition of growth at 25 ppm (Fusarium graminearum) | inhibition of growth at 25 ppm (Glomerella cingulata) | inhibition of growth at 25 ppm (Colletotrichum acutatum) | pest or weed control at 25 ppm (Botrytis cinerea [2]) | pest or weed control at 125 ppm (Botrytis cinerea [2]) | pest or weed control at 125 ppm (Venturia inaequalis) | pest or weed control at 125 ppm [3]

COC(=O)N(Cc1ccc(C)cc1OC)NC(=O)c1cc(C)nnc1Oc1cccc(C2CC2)c1F [b-153]
≥ 75%: inhibition of growth at 25 ppm (Botrytis cinerea [1]) | inhibition of growth at 25 ppm (Fusarium graminearum) | inhibition of growth at 25 ppm (Glomerella cingulata) | inhibition of growth at 25 ppm (Colletotrichum acutatum) | pest or weed control at 25 ppm (Botrytis cinerea [2]) | pest or weed control at 125 ppm (Botrytis cinerea [2]) | pest or weed control at 125 ppm (Venturia inaequalis) | pest or weed control at 125 ppm [3]

CCc1cc(C(=O)NN(Cc2ccc(OC)cc2C)C(=O)OC)c(Oc2cccc(C3CC3)c2F)nn1 [b-154]
≥ 75%: inhibition of growth at 25 ppm (Botrytis cinerea [1]) | inhibition of growth at 25 ppm (Fusarium graminearum) | inhibition of growth at 25 ppm (Glomerella cingulata) | inhibition of growth at 25 ppm (Colletotrichum acutatum) | pest or weed control at 25 ppm (Botrytis cinerea [2]) | pest or weed control at 125 ppm (Botrytis cinerea [2]) | pest or weed control at 125 ppm (Venturia inaequalis) | pest or weed control at 125 ppm [3]

COC(=O)N(Cc1ccc(OC)cc1C)NC(=O)c1cc(C)nnc1Oc1cccc(Cl)c1F [b-168]
≥ 75%: inhibition of growth at 25 ppm (Botrytis cinerea [1]) | inhibition of growth at 25 ppm (Fusarium graminearum) | inhibition of growth at 25 ppm (Glomerella cingulata) | inhibition of growth at 25 ppm (Colletotrichum acutatum) | pest or weed control at 125 ppm (Botrytis cinerea [2]) | pest or weed control at 125 ppm (Venturia inaequalis) | pest or weed control at 125 ppm [3]

COC(=O)N(Cc1ccc(C)cc1C)NC(=O)c1cc(Cl)nnc1Oc1cccc(Cl)c1F [b-169]
≥ 75%: inhibition of growth at 25 ppm (Botrytis cinerea [1]) | inhibition of growth at 25 ppm (Fusarium graminearum) | inhibition of growth at 25 ppm (Glomerella cingulata) | inhibition of growth at 25 ppm (Colletotrichum acutatum) | pest or weed control at 125 ppm (Botrytis cinerea [2]) | pest or weed control at 125 ppm (Venturia inaequalis) | pest or weed control at 125 ppm [3]

COC(=O)N(Cc1ccc(OC)cc1C)NC(=O)c1cc(Cl)nnc1Oc1cccc(Cl)c1F [b-170]
≥ 75%: inhibition of growth at 25 ppm (Botrytis cinerea [1]) | inhibition of growth at 25 ppm (Fusarium graminearum) | inhibition of growth at 25 ppm (Glomerella cingulata) | inhibition of growth at 25 ppm (Colletotrichum acutatum) | pest or weed control at 125 ppm (Botrytis cinerea [2]) | pest or weed control at 125 ppm (Venturia inaequalis) | pest or weed control at 125 ppm [3]

COC(=O)N(Cc1ccc(OC)cc1Cl)NC(=O)c1cc(C)nnc1Oc1cccc(C2CC2)c1F [b-171]
≥ 75%: inhibition of growth at 25 ppm (Botrytis cinerea [1]) | inhibition of growth at 25 ppm (Fusarium graminearum) | inhibition of growth at 25 ppm (Glomerella cingulata) | inhibition of growth at 25 ppm (Colletotrichum acutatum) | pest or weed control at 25 ppm (Botrytis cinerea [2]) | pest or weed control at 125 ppm (Botrytis cinerea [2]) | pest or weed control at 125 ppm (Venturia inaequalis) | pest or weed control at 125 ppm [3]

COC(=O)N(Cc1ccc(C)cc1Cl)NC(=O)c1c(Oc2cccc(Cl)c2F)nnc(Cl)c1C [b-176]
≥ 75%: inhibition of growth at 25 ppm (Botrytis cinerea [1]) | inhibition of growth at 25 ppm (Fusarium graminearum) | inhibition of growth at 25 ppm (Glomerella cingulata) | inhibition of growth at 25 ppm (Colletotrichum acutatum) | pest or weed control at 25 ppm (Botrytis cinerea [2]) | pest or weed control at 125 ppm (Botrytis cinerea [2]) | pest or weed control at 125 ppm (Venturia inaequalis) | pest or weed control at 125 ppm [3]
